Test results taken from US3960877A, “N-monosubstituted-2,3-pyridinedicarboxamides, and related compounds” (priority 1974, dated 1976).

What was measured:
Assay type in all cases: in vivo
Cucumber [1] = experiment: Preemergence herbicidal activity, % control of plant growth; settings: Cucumis sativus, pre-emergence, 504 h, 16 lb/acre, about 3 weeks
Summary of the method: (§1)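 Soil sprayed pre-emergence, right after sowing, at 16 lb/acre (≈2 wt% in acetone/alcohol). Scored visually at ~3 weeks vs untreated control as % growth control.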

Nutgrass [2] = experiment: as above; settings: pre-emergence, 504 h, 16 lb/acre, about 3 weeks
Summary of the method: as §1

Lambsquarters [3] = experiment: as above; settings: Chenopodium album, pre-emergence, 504 h, 16 lb/acre, about 3 weeks
Summary of the method: as §1

Wild Oats [4] = experiment: as above; settings: Avena fatua, pre-emergence, 504 h, 16 lb/acre, about 3 weeks
Summary of the method: as §1

Barnyard Grass [5] = experiment: as above; settings: Echinochloa crus-galli, pre-emergence, 504 h; barnyard grass; 16 lb/acre; about 3 weeks
Summary of the method: as §1

Foxtail [6] = experiment: as above; settings: Setaria, pre-emergence, 504 h, 16 lb/acre, about 3 weeks
Summary of the method: as §1

Cheatgrass [7] = experiment: as above; settings: Bromus tectorum, pre-emergence, 504 h, 16 lb/acre, about 3 weeks
Summary of the method: as §1

Pigweed [8] = experiment: as above; settings: Amaranthus retroflexus, pre-emergence, 504 h, 16 lb/acre, about 3 weeks
Summary of the method: as §1

Crabgrass [9] = experiment: as above; settings: Digitaria sanguinalis, pre-emergence, 504 h, 16 lb/acre, about 3 weeks
Summary of the method: as §1

Yellow Rocket [10] = experiment: as above; settings: pre-emergence, 504 h, 16 lb/acre, about 3 weeks
Summary of the method: as §1

Curled Dock [11] = experiment: as above; settings: pre-emergence, 504 h, 16 lb/acre, about 3 weeks
Summary of the method: as §1

Velvetleaf [12] = experiment: as above; settings: Abutilon theophrasti, pre-emergence, 504 h, 16 lb/acre, about 3 weeks
Summary of the method: as §1

Alfalfa [13] = experiment: as above; settings: Medicago sativa, pre-emergence, 504 h, 16 lb/acre, about 3 weeks
Summary of the method: as §1

Corn [14] = experiment: as above; settings: Zea mays, pre-emergence, 504 h, 16 lb/acre, about 3 weeks
Summary of the method: as §1

Johnsongrass [15] = experiment: as above; settings: Sorghum halepense, pre-emergence, 504 h, 16 lb/acre, about 3 weeks
Summary of the method: as §1

Snapbeans [16] = experiment: as above; settings: pre-emergence, 504 h, 16 lb/acre, about 3 weeks
Summary of the method: as §1

Chickweed [17] = experiment: as above; settings: pre-emergence, 504 h, 16 lb/acre, about 3 weeks
Summary of the method: as §1

Cucumber [18] = experiment: Postemergence herbicidal activity, % control of plant growth; settings: Cucumis sativus, post-emergence, 264 h, 8 lb/acre, about 11 days
Summary of the method: (§2)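 Postemergence spray at 8 lb/acre onto soil and developing seedlings about 2 weeks after sowing; approx. 2% by weight solution in acetone and/or alcohol. Percent control estimated visually at approx. 11 days.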

Nutgrass [19] = experiment: as above; settings: post-emergence, 264 h, 8 lb/acre, about 11 days
Summary of the method: as §2

Lambsquarters [20] = experiment: as above; settings: Chenopodium album, post-emergence, 264 h, 8 lb/acre, about 11 days
Summary of the method: as §2

Wild Oats [21] = experiment: as above; settings: Avena fatua, post-emergence, 264 h, 8 lb/acre, about 11 days
Summary of the method: as §2

Barnyard Grass [22] = experiment: as above; settings: Echinochloa crus-galli, post-emergence, 264 h, 8 lb/acre, about 11 days
Summary of the method: as §2

Foxtail [23] = experiment: as above; settings: Setaria, post-emergence, 264 h, 8 lb/acre, about 11 days
Summary of the method: as §2

Cheatgrass [24] = experiment: as above; settings: Bromus tectorum, post-emergence, 264 h, 8 lb/acre, about 11 days
Summary of the method: as §2

Pigweed [25] = experiment: as above; settings: Amaranthus retroflexus, post-emergence, 264 h, 8 lb/acre, about 11 days
Summary of the method: as §2

Crabgrass [26] = experiment: as above; settings: Digitaria sanguinalis, post-emergence, 264 h, 8 lb/acre, about 11 days
Summary of the method: as §2

Yellow Rocket [27] = experiment: as above; settings: post-emergence, 264 h, 8 lb/acre, about 11 days
Summary of the method: as §2

Curled Dock [28] = experiment: as above; settings: post-emergence, 264 h, 8 lb/acre, about 11 days
Summary of the method: as §2

Velvetleaf [29] = experiment: as above; settings: Abutilon theophrasti, post-emergence, 264 h, 8 lb/acre, about 11 days
Summary of the method: as §2

Alfalfa [30] = experiment: as above; settings: Medicago sativa, post-emergence, 264 h, 8 lb/acre, about 11 days
Summary of the method: as §2

Corn [31] = experiment: as above; settings: Zea mays, post-emergence, 264 h, 8 lb/acre, about 11 days
Summary of the method: as §2

Johnsongrass [32] = experiment: as above; settings: Sorghum halepense, post-emergence, 264 h, 8 lb/acre, about 11 days
Summary of the method: as §2

Snapbeans [33] = experiment: as above; settings: post-emergence, 264 h, 8 lb/acre, about 11 days
Summary of the method: as §2

Chickweed [34] = experiment: as above; settings: post-emergence, 264 h, 8 lb/acre, about 11 days
Summary of the method: as §2

[35] = tested on: undesirable plants of both the monocotyledonous and the dicotyledonous species; experiment: Herbicidal activity, general
From the text: All of the 3-substituted compounds of the pyrido [3,2-d]pyrimidine-2,4(1H,3H)-dione and lumazine families made from intermediate amides produced by the method of this invention have an unexpectedly high order of herbicidal activity.
In using the compound, seeds of the types of plants set forth in Table II were sown in fresh soil. In the preemergence test the soil was sprayed with a solution of the test compound immediately after the seeds were planted, and before any noticeable growth developed. The solution was about a 2 percent by weight solution of the compound in acetone and/or alcohol. The compound was applied at the rate of 16 pounds per acre of soil surface.
Approximately 3 weeks after spray application, the herbicidal activity of the compound was determined by visual observation of the treated area in comparison with untreated control areas. These observations are reported below in Table II wherein the average activity rating is reported as the percent control of plant growth.
In the postemergence test the soil and developing plants were sprayed approximately 2 weeks after the seeds were sown. The compound was applied at the rate of 8 pounds per acre from about a 2 percent by weight solution of the test compound in acetone and/or alcohol. The postemergence herbicidal activity was measured in the same way as the preemergence activity; i.e. visual observation approximately 11 days after spraying, and expressed as the percent control of plant growth.

CC(C)n1c(=O)[nH]c2cccnc2c1=O [3-isopropyl-pyrido[3,2-d]pyrimidine-2,4(1H,3H)-dione]
pest or weed control at 17933.6 g/ha (Cucumber [1]): 100%
pest or weed control at 17933.6 g/ha (Nutgrass [2]): 20%
pest or weed control at 17933.6 g/ha (Lambsquarters [3]): 90%
pest or weed control at 17933.6 g/ha (Wild Oats [4]): 100%
pest or weed control at 17933.6 g/ha (Barnyard Grass [5]): 100%
pest or weed control at 17933.6 g/ha (Foxtail [6]): 100%
pest or weed control at 17933.6 g/ha (Cheatgrass [7]): 100%
pest or weed control at 17933.6 g/ha (Pigweed [8]): 100%
pest or weed control at 17933.6 g/ha (Crabgrass [9]): 100%
pest or weed control at 17933.6 g/ha (Yellow Rocket [10]): 100%
pest or weed control at 17933.6 g/ha (Curled Dock [11]): 100%
pest or weed control at 17933.6 g/ha (Velvetleaf [12]): 100%
pest or weed control at 17933.6 g/ha (Alfalfa [13]): 100%
plant injury at 17933.6 g/ha (Corn [14]): 100%
pest or weed control at 17933.6 g/ha (Johnsongrass [15]): 100%
pest or weed control at 17933.6 g/ha (Snapbeans [16]): 100%
pest or weed control at 17933.6 g/ha (Chickweed [17]): 100%
pest or weed control at 8966.8 g/ha (Cucumber [18]): 100%
pest or weed control at 8966.8 g/ha (Nutgrass [19]): 50%
pest or weed control at 8966.8 g/ha (Lambsquarters [20]): 100%
pest or weed control at 8966.8 g/ha (Wild Oats [21]): 70%
pest or weed control at 8966.8 g/ha (Barnyard Grass [22]): 80%
pest or weed control at 8966.8 g/ha (Foxtail [23]): 100%
pest or weed control at 8966.8 g/ha (Cheatgrass [24]): 50%
pest or weed control at 8966.8 g/ha (Pigweed [25]): 100%
pest or weed control at 8966.8 g/ha (Crabgrass [26]): 100%
pest or weed control at 8966.8 g/ha (Yellow Rocket [27]): 100%
pest or weed control at 8966.8 g/ha (Curled Dock [28]): 100%
pest or weed control at 8966.8 g/ha (Velvetleaf [29]): 100%
pest or weed control at 8966.8 g/ha (Alfalfa [30]): 90%
plant injury at 8966.8 g/ha (Corn [31]): 30%
pest or weed control at 8966.8 g/ha (Johnsongrass [32]): 90%
pest or weed control at 8966.8 g/ha (Snapbeans [33]): 90%
pest or weed control at 8966.8 g/ha (Chickweed [34]): 70%
order of herbicidal activity ([35]; in vivo): high order of activity

CCC(C)n1c(=O)[nH]c2cccnc2c1=O (stereo not shown) [3-sec-butyl-pyrido[3,2-d] pyrimidine-2,4(1H,3H)-dione]
pest or weed control at 17933.6 g/ha (Cucumber [1]): 100%
pest or weed control at 17933.6 g/ha (Nutgrass [2]): 100%
pest or weed control at 17933.6 g/ha (Lambsquarters [3]): 100%
pest or weed control at 17933.6 g/ha (Wild Oats [4]): 100%
pest or weed control at 17933.6 g/ha (Barnyard Grass [5]): 100%
pest or weed control at 17933.6 g/ha (Foxtail [6]): 100%
pest or weed control at 17933.6 g/ha (Cheatgrass [7]): 100%
pest or weed control at 17933.6 g/ha (Pigweed [8]): 100%
pest or weed control at 17933.6 g/ha (Crabgrass [9]): 100%
pest or weed control at 17933.6 g/ha (Yellow Rocket [10]): 100%
pest or weed control at 17933.6 g/ha (Curled Dock [11]): 100%
pest or weed control at 17933.6 g/ha (Velvetleaf [12]): 100%
pest or weed control at 17933.6 g/ha (Alfalfa [13]): 100%
plant injury at 17933.6 g/ha (Corn [14]): 100%
pest or weed control at 17933.6 g/ha (Johnsongrass [15]): 100%
pest or weed control at 17933.6 g/ha (Snapbeans [16]): 100%
pest or weed control at 17933.6 g/ha (Chickweed [17]): 100%
pest or weed control at 8966.8 g/ha (Cucumber [18]): 100%
pest or weed control at 8966.8 g/ha (Nutgrass [19]): 100%
pest or weed control at 8966.8 g/ha (Lambsquarters [20]): 100%
pest or weed control at 8966.8 g/ha (Wild Oats [21]): 100%
pest or weed control at 8966.8 g/ha (Barnyard Grass [22]): 100%
pest or weed control at 8966.8 g/ha (Foxtail [23]): 100%
pest or weed control at 8966.8 g/ha (Cheatgrass [24]): 100%
pest or weed control at 8966.8 g/ha (Pigweed [25]): 100%
pest or weed control at 8966.8 g/ha (Crabgrass [26]): 100%
pest or weed control at 8966.8 g/ha (Yellow Rocket [27]): 100%
pest or weed control at 8966.8 g/ha (Curled Dock [28]): 100%
pest or weed control at 8966.8 g/ha (Velvetleaf [29]): 100%
pest or weed control at 8966.8 g/ha (Alfalfa [30]): 100%
plant injury at 8966.8 g/ha (Corn [31]): 90%
pest or weed control at 8966.8 g/ha (Johnsongrass [32]): 100%
pest or weed control at 8966.8 g/ha (Snapbeans [33]): 100%
pest or weed control at 8966.8 g/ha (Chickweed [34]): 100%
effective application rate ([35]; relative to 3-isopropyl-pyrido[3,2-d]pyrimidine-2,4(1H,3H)-dione, preemergence or postemergence): substantially the same application rates, e.g., as similar or salt solutions in water, are effective
